# Laboratory results as given in patent US20260055118A1, “VISIBLE LIGHT SENSITIVE PHOTOREMOVABLE PROTECTING GROUPS, PREPARATION PROCESS THEREOF, PHOTOACTIVATABLE CONJUGATES COMPRISING THEM AND USES THEREOF” (HUN-REN TERMÉSZETTUDOMÁNYI KUTATÓKÖZPONT, priority 2022, published 2026).
# pEC50: −log10 of the molar value. Read-outs that look alike come from different tables or passages of the source.
# System: SK-OV-3 cells
# Experiment: Cytotoxicity determination, MTT assay, with light irradiation and in the dark
# Format: cell-based, human
# Method: A viability test was carried out to assess the toxicity of SN38 as well as the photoremovable protecting group-SN38 conjugates X1′-SN38 and X2′-SN38 after light irradiation and in the dark on SKOV3 cells. Cells were transferred into a 48-well plate (Thermo Fisher Scientific, 130187) (4,500 cells/well) and incubated for 20-24 h at 37° C. in a 5% CO2 atmosphere in McCoy's 5A (Modified) Medium, HEPES (Gibco 22330021) supplemented with 10% FBS (Gibco 10500-064), 1% penicillin-streptomycin (Gibco 15140-122). Cells were treated with compounds in the concentration range of 10^−11-10^−4 M for 90 min followed by light irradiation or kept in the dark at 37° C. in 5% CO2 atmosphere. After treatment and irradiation, cells were kept at 37° C. in 5% CO2 atmosphere for 72 hours. After the incubation period, supernatants were replaced with 0.5 mg/ml MTT (3-(4,5-dimethylthiazol-2-yl)-2,5-diphenyltetrazolium bromide; Sigma M5655-1G) solution (in complete DMEM: Dulbecco's modified Eagle's medium (DMEM, Gibco 41965-039), supplemented with 10% FBS (Gibco 10500-064), 1% penicillin-streptomycin (Gibco 15140-122), 1% Glutamax (Gibco 35050-061) and 1% sodium pyruvate (Life Technologies, Gibco 11360-070)) and incubated for 120 min at 37° C. in the dark. The insoluble formazan crystals were dissolved in 250 μl DMSO. Absorbance was detected at 540 nm using a Biotek Synergy 2 Cytation 3 imaging plate reader with Gen5 software version 3.08 (Biotek Winooski, VT, USA). Viability was expressed as percentage (n=3) of the readings of untreated control cells.
# To determine phototoxic properties of compounds X1′-SN38 and X2′-SN38, standard MTT assays were performed on SK—OV-3 cells. To irradiate multiple specimens, an LED panel was custom-made for a 48-well plate consisting of 24 LEDs using green (4 W input power, λmax=549 nm half-width: 16 nm, output power: 72 mW), orange (4 W input power, λmax=605 nm half-width: 10 nm, output power: 140 mW) and red (4 W input power, λmax=658 nm half-width: 10 nm, for Q=CMe2 output power: 210 mW) LED irradiation. The board was specifically designed for the plates and offer water cooling to minimize heat shock to cells. Every second well can be irradiated with an individual LED. First, the cytotoxicity of the free active agent, SN38 was determined to be EC50 ^˜6 nM. Treatment of cells with the photoactivatable SN38 derivatives for 72 hours in the absence of light (without washing) produced moderate cytotoxic effects, sigificantly lowering the effectiveness of the active agent. This confirms that SN38 is a suitable candidate for light-activated prodrug applications. […] Reducing the irradiation time down to 10 s still produced significant phototoxicity in higher concentrations (see FIG. 8a for compound X2′-SN38) even assuming incomplete uncaging as a result of the substantial dark stability of compound X2′-SN38.
compound,measurement,setting,value
CCc1c2c(nc3ccc(OC(=O)N(C)CCN(C)C(=O)OC(C)c4c5ccc(=[N+]6CCCC6)cc-5oc5cc(N6CCCC6)ccc45)cc13)-c1cc3c(c(=O)n1C2)COC(=O)C3(O)CC.[I-] (mixture of isomers) [X1′-SN38],pEC50,"dark, (green) series, read-out: Dark EC50 values",5.40
same,pEC50,"dark, (orange) series, read-out: Dark EC50 values",5.96
same,pEC50,"green light irradiation, 15 min, read-out: EC50 values after irradiation",7.20
same,Photoindex,"green light, 15 min",64
same,Photoindex,"orange light, 5 min",45
same,pEC50,"orange light, 5 min, read-out: EC50 values after irradiation",7.64
